# Results reported in patent US7943340B2, “Fungal dipeptidyl peptidase IV (DPPIV) enzyme for reagent use” (priority 2003, dated 2011).
# Where two headings read alike, the source gives them in different places.
# T1: pkLAP (microsomal LAP from porcine kidney) (Sus scrofa, UniProt P15145)
# T1 construct: purchased Sigma; host or cells: porcine kidney
# T1 sequence (P15145 1-963): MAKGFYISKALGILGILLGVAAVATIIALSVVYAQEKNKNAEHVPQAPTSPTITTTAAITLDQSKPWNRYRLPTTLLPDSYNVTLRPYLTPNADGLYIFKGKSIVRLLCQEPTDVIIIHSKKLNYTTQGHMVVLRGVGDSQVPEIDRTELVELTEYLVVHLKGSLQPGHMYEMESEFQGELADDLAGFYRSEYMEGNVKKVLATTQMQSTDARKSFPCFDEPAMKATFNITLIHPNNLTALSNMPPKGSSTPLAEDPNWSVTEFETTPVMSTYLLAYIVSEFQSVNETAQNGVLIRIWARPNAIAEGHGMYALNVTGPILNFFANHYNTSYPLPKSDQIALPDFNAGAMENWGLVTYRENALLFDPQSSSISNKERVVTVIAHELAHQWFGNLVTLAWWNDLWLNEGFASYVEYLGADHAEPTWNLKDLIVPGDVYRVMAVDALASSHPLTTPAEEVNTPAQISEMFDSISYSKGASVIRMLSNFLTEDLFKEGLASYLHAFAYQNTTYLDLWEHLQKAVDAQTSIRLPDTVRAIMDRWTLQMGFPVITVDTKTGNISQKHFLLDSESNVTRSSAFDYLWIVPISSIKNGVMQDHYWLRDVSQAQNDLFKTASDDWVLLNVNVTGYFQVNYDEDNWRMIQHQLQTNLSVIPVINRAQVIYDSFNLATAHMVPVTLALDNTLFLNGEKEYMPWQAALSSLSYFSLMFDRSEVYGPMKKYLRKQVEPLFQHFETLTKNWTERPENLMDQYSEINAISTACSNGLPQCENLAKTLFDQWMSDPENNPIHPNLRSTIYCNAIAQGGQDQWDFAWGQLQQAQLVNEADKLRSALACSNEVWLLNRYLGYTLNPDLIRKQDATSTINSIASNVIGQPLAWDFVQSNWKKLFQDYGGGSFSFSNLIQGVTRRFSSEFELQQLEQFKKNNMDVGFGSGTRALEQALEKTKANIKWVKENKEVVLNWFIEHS
# B1: Cytosolic porcine kidney aminopeptidase: cytosolic leucine aminopeptidase from porcine kidney, Sigma (protein, UniProt P28839 1-519, looked up)
# Cytosol aminopeptidase: MFLLPLPAAARVAVRQLSVRRFWGPGPDAANMTKGLVLGIYSKEKEDDAPQFTSAGENFDKLVSGKLREILNISGPPLKAGKTRTFYGLHEDFSSVVVVGLGKKGAGVDDQENWHEGKENIRAAVAAGCRQIQDLEIPSVEVDPCGDAQAAAEGAVLGLYEYDELKQKKKVVVSAKLHGSGDQEAWQRGVLFASGQNLARHLMETPANEMTPTRFAEVIEKNLKSASSKTDVHIRPKSWIEEQEMGSFLSVAKGSEEPPVFLEIHYKGSPDASDPPLVFVGKGITFDSGGISIKASANMDLMRADMGGAATICSTIVSAAKLDLPINLVGLAPLCENMPSGKANKPGDVVRAKNGKTIQVDNTDAEGRLILADALCYAHTFNPKVIINAATLTGAMDIALGSGATGVFTNSSWLWNKLFEASIETGDRVWRMPLFEHYTKQIVDCQLADVNNIGKYRSAGACTAAAFLKEFVTHPKWAHLDIAGVMTNKDEVPYLRKGMAGRPTRTLIEFLLRFSQDSA
# Key:
# ruLAP1 = ruLAP1 (Trichophyton rubrum, UniProt Q5QHG5); type: biochemical; details: for ruLAP1 hydrolytic activity, percentage of control without any cation / ruLAP1 hydrolytic activity, percentage of control without inhibitor: Leu-MCA substrate
# Sequence of ruLAP1 (Q5QHG5 19-373): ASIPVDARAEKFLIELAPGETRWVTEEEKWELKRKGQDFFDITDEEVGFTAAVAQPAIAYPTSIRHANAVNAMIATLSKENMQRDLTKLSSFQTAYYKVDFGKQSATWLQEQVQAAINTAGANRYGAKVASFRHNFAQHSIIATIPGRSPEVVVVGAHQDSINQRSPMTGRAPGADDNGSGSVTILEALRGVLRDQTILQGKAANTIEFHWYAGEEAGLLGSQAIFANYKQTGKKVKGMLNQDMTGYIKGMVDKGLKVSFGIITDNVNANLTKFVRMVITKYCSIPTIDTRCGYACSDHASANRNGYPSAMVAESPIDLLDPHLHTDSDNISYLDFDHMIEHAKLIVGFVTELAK
# Description: (§1) Inhibitors and metallic cations were pre-incubated with the enzymes for 15 min at 37° C. Then, Leu-AMC at a 5 mM final concentration was added. After further incubation for 60 min, enzyme activity was measured as described above. The inhibitors and their concentrations tested purified LAPs were: 500 μM amastatin (Bachem), 40 μM benzamidine (Sigma), 500 μM bestatin (Bachem), 5 mM/l mM EDTA (Sigma). 100 μM E-64 (L-trans-epoxysuccinyl-leu-4-guanidinobutylamide) (Bachem), 100 μM leupeptin (Sigma), 5 mM/1 mM ortho-phenanthroline (Sigma), 500 μM p-chloromercuribenzoic acid (Sigma), 100 μM pepstatin A (Sigma), 40 μM PMSF (Sigma), 20 μM TLCK (Roche Diagnostics), and 20 μM TPCK (Roche Diagnostics).
# ruLAP2 = ruLAP2 (Trichophyton rubrum, UniProt Q5QHG6); type: biochemical; details: for ruLAP2 hydrolytic activity, percentage of control without any cation / ruLAP2 hydrolytic activity, percentage of control without inhibitor: Leu-MCA substrate; for effect of inhibitor on ruLAP2 activity: Leu-AMC 5 mM, inhibitor concentrations
# Sequence of ruLAP2 (Q5QHG6 22-495): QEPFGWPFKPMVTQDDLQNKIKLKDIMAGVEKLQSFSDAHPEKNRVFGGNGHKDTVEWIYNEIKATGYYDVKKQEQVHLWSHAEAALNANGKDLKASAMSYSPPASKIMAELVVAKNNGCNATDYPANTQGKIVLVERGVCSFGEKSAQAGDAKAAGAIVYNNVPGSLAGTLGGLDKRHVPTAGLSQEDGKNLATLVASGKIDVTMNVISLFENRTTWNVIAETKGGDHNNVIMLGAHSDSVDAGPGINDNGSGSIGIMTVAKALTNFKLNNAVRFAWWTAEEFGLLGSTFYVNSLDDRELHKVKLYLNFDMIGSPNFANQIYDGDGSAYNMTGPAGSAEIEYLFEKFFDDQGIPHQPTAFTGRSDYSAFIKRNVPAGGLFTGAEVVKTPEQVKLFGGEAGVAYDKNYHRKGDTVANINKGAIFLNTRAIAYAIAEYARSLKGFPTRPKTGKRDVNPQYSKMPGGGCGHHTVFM
# Description: as §1
# [1] = system: all the LAPs tested (ruLAP1, ruLAP2, fuLAP1, fuLAP2, pkLAP); type: biochemical; details: for effect of inhibitor on all the LAPs tested: Leu-AMC 5 mM, amastatin 500 μM, ortho-phenantroline 1 and 5 mM, others as
# Description: as §1
# fuLAP1 = fuLAP1 (Aspergillus fumigatus, UniProt Q5VJG6); type: biochemical; details: for fuLAP1 hydrolytic activity, percentage of control without any cation / fuLAP1 hydrolytic activity, percentage of control without inhibitor: Leu-MCA substrate
# Sequence of fuLAP1 (Q5VJG6 15-388, looked up, natural form): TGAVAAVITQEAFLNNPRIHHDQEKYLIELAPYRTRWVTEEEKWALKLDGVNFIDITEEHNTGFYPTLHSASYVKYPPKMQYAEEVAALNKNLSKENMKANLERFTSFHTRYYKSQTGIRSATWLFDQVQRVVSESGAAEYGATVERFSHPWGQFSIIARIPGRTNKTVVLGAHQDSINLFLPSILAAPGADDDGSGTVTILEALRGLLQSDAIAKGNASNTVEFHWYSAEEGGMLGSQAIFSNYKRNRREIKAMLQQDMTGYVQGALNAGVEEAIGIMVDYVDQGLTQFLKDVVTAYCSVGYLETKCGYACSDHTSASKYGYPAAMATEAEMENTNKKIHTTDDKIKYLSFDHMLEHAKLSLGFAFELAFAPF
# Description: as §1
# [2] = biological target: T1, pkLAP (microsomal LAP from porcine kidney); experiment: Effect of chemical reagents (inhibitors, metallic cations) on LAP activity with Leu-AMC; type: biochemical; details: for pkLAP hydrolytic activity, percentage of control without any cation / pkLAP hydrolytic activity, percentage of control without inhibitor: Leu-MCA substrate; for effect of divalent cation on pkLAP activity: Leu-AMC substrate
# Description: as §1
# fuLAP2 = type: biochemical, Aspergillus fumigatus; details: for fuLAP2 hydrolytic activity, percentage of control without any cation / fuLAP2 hydrolytic activity, percentage of control without inhibitor: Leu-MCA substrate
# Description: as §1
# gliadin 33 mer = experiment: Digestion of gliadin 33 mer (RP-HPLC, ESI-MS); type: biochemical, wheat
# [3] = Leu-AMC 5 mM, inhibitor concentrations, pepstatin 0.1 mM
# [4] = Leu-AMC 5 mM, inhibitor concentrations
molecule,measurement,setting,value
"[Cl-].[Cl-].[Co+2] [Co^++, CoCl2]","ruLAP1 hydrolytic activity, percentage of control without any cation",ruLAP1; cation salt 0.5 mM,210.2%
same,"ruLAP1 hydrolytic activity, percentage of control without any cation",ruLAP1; cation salt 1 mM,202.1%
same,effect of divalent cation on ruLAP2 activity,ruLAP2; Leu-AMC substrate,highly activated
same,"ruLAP2 hydrolytic activity, percentage of control without any cation",ruLAP2; cation salt 0.5 mM,591.2%
same,"ruLAP2 hydrolytic activity, percentage of control without any cation",ruLAP2; cation salt 1 mM,789.7%
same,increase of the activity of the LAPs,"[1]; concentration up to 1 mM, with the exception of fuLAP1",200% to 900%
same,"fuLAP1 hydrolytic activity, percentage of control without any cation",fuLAP1; cation salt 0.5 mM,104.3%
same,"fuLAP1 hydrolytic activity, percentage of control without any cation",fuLAP1; cation salt 1 mM,96.5%
same,"pkLAP hydrolytic activity, percentage of control without any cation",[2]; cation salt 0.5 mM,876.1%
same,"pkLAP hydrolytic activity, percentage of control without any cation",[2]; cation salt 1 mM,899.8%
same,effect of divalent cation on fuLAP2 activity,fuLAP2; Leu-AMC substrate,highly activated
same,"fuLAP2 hydrolytic activity, percentage of control without any cation",fuLAP2; cation salt 0.5 mM,378.0%
same,"fuLAP2 hydrolytic activity, percentage of control without any cation",fuLAP2; cation salt 1 mM,662.7%
"CC(=O)N[C@@H](CC(C)C)C(=O)N[C@@H](CC(C)C)C(=O)N[C@H](C=O)CCCNC(=N)N [Leupeptin, leupeptin]",effect of inhibitor on all the LAPs tested,[1],no clear inhibitory effects
same,"fuLAP2 hydrolytic activity, percentage of control without inhibitor",fuLAP2; inhibitor 100 μM,61%
"[Cl][Ni][Cl] [Ni, NiCl2]","ruLAP1 hydrolytic activity, percentage of control without any cation",ruLAP1; cation salt 0.5 mM,74.8%
same,"ruLAP1 hydrolytic activity, percentage of control without any cation",ruLAP1; cation salt 1 mM,58.1%
same,"ruLAP2 hydrolytic activity, percentage of control without any cation",ruLAP2; cation salt 0.5 mM,130.5%
same,"ruLAP2 hydrolytic activity, percentage of control without any cation",ruLAP2; cation salt 1 mM,147.9%
same,"fuLAP1 hydrolytic activity, percentage of control without any cation",fuLAP1; cation salt 0.5 mM,51.7%
same,"fuLAP1 hydrolytic activity, percentage of control without any cation",fuLAP1; cation salt 1 mM,37.2%
same,effect of divalent cation on pkLAP activity,[2],highly activated
same,"pkLAP hydrolytic activity, percentage of control without any cation",[2]; cation salt 0.5 mM,1187.7%
same,"pkLAP hydrolytic activity, percentage of control without any cation",[2]; cation salt 1 mM,1158.7%
same,"fuLAP2 hydrolytic activity, percentage of control without any cation",fuLAP2; cation salt 0.5 mM,98.4%
same,"fuLAP2 hydrolytic activity, percentage of control without any cation",fuLAP2; cation salt 1 mM,149.3%
Cc1ccc(S(=O)(=O)N[C@@H](CCCCN)C(=O)CCl)cc1 [TLCK],"ruLAP1 hydrolytic activity, percentage of control without inhibitor",ruLAP1; inhibitor 20 μM,68%
same,"ruLAP2 hydrolytic activity, percentage of control without inhibitor",ruLAP2; inhibitor 20 μM,96%
same,effect of inhibitor on all the LAPs tested,[1],no clear inhibitory effects
same,"fuLAP1 hydrolytic activity, percentage of control without inhibitor",fuLAP1; inhibitor 20 μM,80%
same,"pkLAP hydrolytic activity, percentage of control without inhibitor",[2]; inhibitor 20 μM,113%
same,"fuLAP2 hydrolytic activity, percentage of control without inhibitor",fuLAP2; inhibitor 20 μM,120%
Cc1ccc(S(=O)(=O)N[C@@H](Cc2ccccc2)C(=O)CCl)cc1 [TPCK],"ruLAP1 hydrolytic activity, percentage of control without inhibitor",ruLAP1; inhibitor 20 μM,68%
same,"ruLAP2 hydrolytic activity, percentage of control without inhibitor",ruLAP2; inhibitor 20 μM,79%
same,effect of inhibitor on all the LAPs tested,[1],no clear inhibitory effects
same,"fuLAP1 hydrolytic activity, percentage of control without inhibitor",fuLAP1; inhibitor 20 μM,95%
same,"pkLAP hydrolytic activity, percentage of control without inhibitor",[2]; inhibitor 20 μM,108%
same,"fuLAP2 hydrolytic activity, percentage of control without inhibitor",fuLAP2; inhibitor 20 μM,87%
"[Cl-].[Cl-].[Zn+2] [Zn, ZnCl2]","ruLAP1 hydrolytic activity, percentage of control without any cation",ruLAP1; cation salt 0.5 mM,43.0%
same,"ruLAP1 hydrolytic activity, percentage of control without any cation",ruLAP1; cation salt 1 mM,68.9%
same,"ruLAP2 hydrolytic activity, percentage of control without any cation",ruLAP2; cation salt 0.5 mM,77.9%
same,"ruLAP2 hydrolytic activity, percentage of control without any cation",ruLAP2; cation salt 1 mM,88.9%
same,"fuLAP1 hydrolytic activity, percentage of control without any cation",fuLAP1; cation salt 0.5 mM,60.7%
same,"fuLAP1 hydrolytic activity, percentage of control without any cation",fuLAP1; cation salt 1 mM,53.2%
same,effect of divalent cation on pkLAP activity,[2],highly activated
same,"pkLAP hydrolytic activity, percentage of control without any cation",[2]; cation salt 0.5 mM,437.6%
same,"pkLAP hydrolytic activity, percentage of control without any cation",[2]; cation salt 1 mM,297.9%
same,"fuLAP2 hydrolytic activity, percentage of control without any cation",fuLAP2; cation salt 0.5 mM,51.4%
same,"fuLAP2 hydrolytic activity, percentage of control without any cation",fuLAP2; cation salt 1 mM,119.5%
CC(C)C[C@@H](N)[C@H](O)C(=O)N[C@H](C(=O)N[C@H](C(=O)N[C@@H](CC(=O)O)C(=O)O)C(C)C)C(C)C [amastatin],effect of inhibitor on all the LAPs tested,[1],strongly or totally inhibited
same,"fuLAP2 hydrolytic activity, percentage of control without inhibitor",fuLAP2; inhibitor 500 μM,0%
N=C(N)c1ccccc1 [benzamidine],effect of inhibitor on all the LAPs tested,[1],no clear inhibitory effects
same,"fuLAP2 hydrolytic activity, percentage of control without inhibitor",fuLAP2; inhibitor 40 μM,91%
CC(C)C[C@H](NC(=O)[C@@H](O)[C@H](N)Cc1ccccc1)C(=O)O [bestatin],effect of inhibitor on ruLAP1 activity,ruLAP1; [3],inhibited
same,effect of inhibitor on ruLAP2 activity,ruLAP2,only partial inhibitory effect
same,effect of inhibitor on fuLAP1 activity,fuLAP1; [3],inhibited
same,effect of inhibitor on pkLAP activity,[2]; [4],inhibited
same,effect of inhibitor on fuLAP2 activity,fuLAP2; [4],only partial inhibitory effect
same,"fuLAP2 hydrolytic activity, percentage of control without inhibitor",fuLAP2; inhibitor 500 μM,88%
c1cnc2c(c1)ccc1cccnc12 [orthophenanthroline],"ruLAP1 hydrolytic activity, percentage of control without inhibitor",ruLAP1; inhibitor 1 mM,0%
same,"ruLAP1 hydrolytic activity, percentage of control without inhibitor",ruLAP1; inhibitor 5 mM,0%
same,"ruLAP2 hydrolytic activity, percentage of control without inhibitor",ruLAP2; inhibitor 1 mM,0%
same,"ruLAP2 hydrolytic activity, percentage of control without inhibitor",ruLAP2; inhibitor 5 mM,0%
same,"fuLAP1 hydrolytic activity, percentage of control without inhibitor",fuLAP1; inhibitor 1 mM,0%
same,"fuLAP1 hydrolytic activity, percentage of control without inhibitor",fuLAP1; inhibitor 5 mM,0%
same,"pkLAP hydrolytic activity, percentage of control without inhibitor",[2]; inhibitor 1 mM,0%
same,"pkLAP hydrolytic activity, percentage of control without inhibitor",[2]; inhibitor 5 mM,0%
same,"fuLAP2 hydrolytic activity, percentage of control without inhibitor",fuLAP2; inhibitor 1 mM,0%
same,"fuLAP2 hydrolytic activity, percentage of control without inhibitor",fuLAP2; inhibitor 5 mM,0%
"O=C(O)c1cc[c]([Hg][Cl])cc1 [p-chloromercuribenzoate, p-chloromercuribenzoic acid]","ruLAP1 hydrolytic activity, percentage of control without inhibitor",ruLAP1; inhibitor 500 μM,32%
same,effect of inhibitor on ruLAP2 activity,ruLAP2,blunted the activity
same,"ruLAP2 hydrolytic activity, percentage of control without inhibitor",ruLAP2; inhibitor 500 μM,21%
same,"fuLAP1 hydrolytic activity, percentage of control without inhibitor",fuLAP1; inhibitor 500 μM,90%
same,"pkLAP hydrolytic activity, percentage of control without inhibitor",[2]; inhibitor 500 μM,59%
same,"fuLAP2 hydrolytic activity, percentage of control without inhibitor",fuLAP2; inhibitor 500 μM,96%
Chymotrypsin [reference compound],digestion of the peptide with other enzymes,"gliadin 33 mer; 20 h, combinations with both enzymes at E/S (w:w) 1:50",not able to breakdown the peptide
B1,digestion of the 33 mer,"gliadin 33 mer; 37° C., 1 mM CoCl2, pH7.2",totally inactive
